In the supplement of paper PMC10307832:

Key:
Assay in all cases: relative viability (nuclei count vs DMSO), 5 days (fraction); higher = more cells survive
Alisertib = compound: COc1cc(Nc2ncc3c(n2)-c2ccc(Cl)cc2C(c2c(F)cccc2OC)=NC3)ccc1C(=O)O [Alisertib]
Procedure, shortened: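 Hoechst staining, done together with fixation and permeabilisation, marked nuclei for 4× imaging and MetaXpress counting. This followed 5 days without medium change after lung cancer cell lines, kept overnight at 37 °C in 1536-well plates, were pinned with five library-drug doses (not always all listed) spaced by √10 on vehicle-anchored plates. Viability is the ratio of treated-well to vehicle-well nuclei, expressed as a median across plates. Plates passed only at control CV below 25% with at least one doubling.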

Alisertib + Foretinib = compound: COc1cc(Nc2ncc3c(n2)-c2ccc(Cl)cc2C(c2c(F)cccc2OC)=NC3)ccc1C(=O)O [Alisertib] + COc1cc2c(Oc3ccc(NC(=O)C4(C(=O)Nc5ccc(F)cc5)CC4)cc3F)ccnc2cc1OCCCN1CCOCC1 [Foretinib] (partner 0.25 µM)
Procedure, shortened: (§1)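 Medians of duplicate plates are given as relative viability. That measure is the nuclei count in treated wells divided by the count in vehicle wells. Counts were taken on 4× images of lung cancer cell lines in 1536-well plates, 5 days after pin-tool dosing the day after seeding with one drug alone or a fixed anchor-drug dose plus five library-drug doses (not always all listed) in √10 steps.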

Alisertib + Pictilisib = compound: COc1cc(Nc2ncc3c(n2)-c2ccc(Cl)cc2C(c2c(F)cccc2OC)=NC3)ccc1C(=O)O [Alisertib] + CS(=O)(=O)N1CCN(Cc2cc3nc(-c4cccc5[nH]ncc45)nc(N4CCOCC4)c3s2)CC1 [Pictilisib] (partner 1 µM)
Procedure, shortened: as §1

Alisertib + Olaparib = compound: COc1cc(Nc2ncc3c(n2)-c2ccc(Cl)cc2C(c2c(F)cccc2OC)=NC3)ccc1C(=O)O [Alisertib] + O=C(c1cc(Cc2n[nH]c(=O)c3ccccc23)ccc1F)N1CCN(C(=O)C2CC2)CC1 [Olaparib] (partner 8 µM)
Procedure, shortened: as §1

Alisertib + Lapatinib = compound: COc1cc(Nc2ncc3c(n2)-c2ccc(Cl)cc2C(c2c(F)cccc2OC)=NC3)ccc1C(=O)O [Alisertib] + CS(=O)(=O)CCNCc1ccc(-c2ccc3ncnc(Nc4ccc(OCc5cccc(F)c5)c(Cl)c4)c3c2)o1 [Lapatinib] (partner 2 µM)
Procedure, shortened: as §1

Alisertib + Linsitinib = compound: COc1cc(Nc2ncc3c(n2)-c2ccc(Cl)cc2C(c2c(F)cccc2OC)=NC3)ccc1C(=O)O [Alisertib] + C[C@]1(O)C[C@@H](c2nc(-c3ccc4ccc(-c5ccccc5)nc4c3)c3c(N)nccn32)C1 [Linsitinib] (partner 1 µM)
Procedure, shortened: as §1

Alisertib + Crizotinib = compound: COc1cc(Nc2ncc3c(n2)-c2ccc(Cl)cc2C(c2c(F)cccc2OC)=NC3)ccc1C(=O)O [Alisertib] + C[C@@H](Oc1cc(-c2cnn(C3CCNCC3)c2)cnc1N)c1c(Cl)ccc(F)c1Cl [Crizotinib] (partner 1 µM)
Procedure, shortened: as §1

Alisertib + Bortezomib = compound: COc1cc(Nc2ncc3c(n2)-c2ccc(Cl)cc2C(c2c(F)cccc2OC)=NC3)ccc1C(=O)O [Alisertib] + CC(C)C[C@H](NC(=O)[C@H](Cc1ccccc1)NC(=O)c1cnccn1)B(O)O [Bortezomib] (partner 0.002 µM)
Procedure, shortened: as §1

Alisertib + Alpelisib = compound: COc1cc(Nc2ncc3c(n2)-c2ccc(Cl)cc2C(c2c(F)cccc2OC)=NC3)ccc1C(=O)O [Alisertib] + Cc1nc(NC(=O)N2CCC[C@H]2C(N)=O)sc1-c1ccnc(C(C)(C)C(F)(F)F)c1 [Alpelisib] (partner 2 µM)
Procedure, shortened: as §1

Alisertib + Navitoclax = compound: COc1cc(Nc2ncc3c(n2)-c2ccc(Cl)cc2C(c2c(F)cccc2OC)=NC3)ccc1C(=O)O [Alisertib] + CC1(C)CCC(c2ccc(Cl)cc2)=C(CN2CCN(c3ccc(C(=O)NS(=O)(=O)c4ccc(N[C@H](CCN5CCOCC5)CSc5ccccc5)c(S(=O)(=O)C(F)(F)F)c4)cc3)CC2)C1 [Navitoclax] (partner 0.5 µM)
Procedure, shortened: as §1

## NCI-H1299
Alisertib; 0.005 µM
  relative viability: 0.992
Alisertib; 0.01581 µM
  relative viability: 0.963
Alisertib; 0.05 µM
  relative viability: 0.585
Alisertib; 0.1581 µM
  relative viability: 0.415
Alisertib; 0.5 µM
  relative viability: 0.233
Alisertib + Foretinib; first compound 0.005 µM
  relative viability: 1.05
Alisertib + Foretinib; first compound 0.01581 µM
  relative viability: 1.05
Alisertib + Foretinib; first compound 0.05 µM
  relative viability: 0.665
Alisertib + Foretinib; first compound 0.1581 µM
  relative viability: 0.333
Alisertib + Foretinib; first compound 0.5 µM
  relative viability: 0.192
Alisertib + Pictilisib; first compound 0.005 µM
  relative viability: 0.753
Alisertib + Pictilisib; first compound 0.01581 µM
  relative viability: 0.698
Alisertib + Pictilisib; first compound 0.05 µM
  relative viability: 0.187
Alisertib + Pictilisib; first compound 0.1581 µM
  relative viability: 0.179
Alisertib + Pictilisib; first compound 0.5 µM
  relative viability: 0.0871
Alisertib + Olaparib; first compound 0.005 µM
  relative viability: 0.931
Alisertib + Olaparib; first compound 0.01581 µM
  relative viability: 0.877
Alisertib + Olaparib; first compound 0.05 µM
  relative viability: 0.582
Alisertib + Olaparib; first compound 0.1581 µM
  relative viability: 0.396
Alisertib + Olaparib; first compound 0.5 µM
  relative viability: 0.193
Alisertib + Lapatinib; first compound 0.005 µM
  relative viability: 0.939
Alisertib + Lapatinib; first compound 0.01581 µM
  relative viability: 0.904
Alisertib + Lapatinib; first compound 0.05 µM
  relative viability: 0.586
Alisertib + Lapatinib; first compound 0.1581 µM
  relative viability: 0.452
Alisertib + Lapatinib; first compound 0.5 µM
  relative viability: 0.295
Alisertib + Linsitinib; first compound 0.005 µM
  relative viability: 0.936
Alisertib + Linsitinib; first compound 0.01581 µM
  relative viability: 0.932
Alisertib + Linsitinib; first compound 0.05 µM
  relative viability: 0.71
Alisertib + Linsitinib; first compound 0.1581 µM
  relative viability: 0.271
Alisertib + Linsitinib; first compound 0.5 µM
  relative viability: 0.189
Alisertib + Crizotinib; first compound 0.005 µM
  relative viability: 0.965
Alisertib + Crizotinib; first compound 0.01581 µM
  relative viability: 0.727
Alisertib + Crizotinib; first compound 0.05 µM
  relative viability: 0.671
Alisertib + Crizotinib; first compound 0.1581 µM
  relative viability: 0.348
Alisertib + Crizotinib; first compound 0.5 µM
  relative viability: 0.252
Alisertib + Bortezomib; first compound 0.005 µM
  relative viability: 0.995
Alisertib + Bortezomib; first compound 0.01581 µM
  relative viability: 0.983
Alisertib + Bortezomib; first compound 0.05 µM
  relative viability: 0.674
Alisertib + Bortezomib; first compound 0.1581 µM
  relative viability: 0.457
Alisertib + Bortezomib; first compound 0.5 µM
  relative viability: 0.286
Alisertib + Alpelisib; first compound 0.005 µM
  relative viability: 1.06
Alisertib + Alpelisib; first compound 0.01581 µM
  relative viability: 1
Alisertib + Alpelisib; first compound 0.05 µM
  relative viability: 0.815
Alisertib + Alpelisib; first compound 0.1581 µM
  relative viability: 0.522
Alisertib + Alpelisib; first compound 0.5 µM
  relative viability: 0.279
Alisertib + Navitoclax; first compound 0.005 µM
  relative viability: 1.03
Alisertib + Navitoclax; first compound 0.01581 µM
  relative viability: 1.01
Alisertib + Navitoclax; first compound 0.05 µM
  relative viability: 0.801
Alisertib + Navitoclax; first compound 0.1581 µM
  relative viability: 0.395
Alisertib + Navitoclax; first compound 0.5 µM
  relative viability: 0.204
